Measurements as given in PubChem BioAssay (NCI).
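GI50 is the concentration that inhibits growth by half. TGI denotes the concentration required for complete inhibition of growth.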

Key:
Test in all cases: NCI tumour cell line growth inhibition, 384-well format
HCT-15 colon = test system: HCT-15 colon
SK-MEL-28 melanoma = test system: SK-MEL-28 melanoma
ACHN renal = test system: ACHN renal
OVCAR-5 ovarian = test system: OVCAR-5 ovarian
SW-620 colon = test system: SW-620 colon
SN12C renal = test system: SN12C renal
LOX IMVI melanoma = test system: LOX IMVI melanoma
SF-295 CNS = test system: SF-295 CNS
HCC-2998 colon = test system: HCC-2998 colon
SR leukemia = test system: SR leukemia
NCI-H226 lung = test system: NCI-H226 lung
OVCAR-8 ovarian = test system: OVCAR-8 ovarian
HT29 colon = test system: HT29 colon
OVCAR-4 ovarian = test system: OVCAR-4 ovarian
HOP-92 NSCLC = test system: HOP-92 NSCLC
RXF 393 renal = test system: RXF 393 renal
MDA-MB-468 breast = test system: MDA-MB-468 breast
HS 578T breast = test system: HS 578T breast
HCT-116 colon = test system: HCT-116 colon
SNB-19 CNS = test system: SNB-19 CNS
KM12 colon = test system: KM12 colon
SK-OV-3 ovarian = test system: SK-OV-3 ovarian
MDA-MB-231 breast = test system: MDA-MB-231 breast
MALME-3M melanoma = test system: MALME-3M melanoma
NCI-H23 lung = test system: NCI-H23 lung
UO-31 renal = test system: UO-31 renal
OVCAR-3 ovarian = test system: OVCAR-3 ovarian
M14 melanoma = test system: M14 melanoma
A549 NSCLC = test system: A549 NSCLC
CCRF-CEM leukemia = test system: CCRF-CEM leukemia
PC-3 prostate = test system: PC-3 prostate
NCI/ADR-RES ovarian = test system: NCI/ADR-RES ovarian
A498 renal = test system: A498 renal
HOP-62 NSCLC = test system: HOP-62 NSCLC
MOLT-4 leukemia = test system: MOLT-4 leukemia
IGROV1 ovarian = test system: IGROV1 ovarian
DU-145 prostate = test system: DU-145 prostate
SF-539 CNS = test system: SF-539 CNS
SNB-75 CNS = test system: SNB-75 CNS
CAKI-1 renal = test system: CAKI-1 renal
UACC-62 melanoma = test system: UACC-62 melanoma
NCI-H322M lung = test system: NCI-H322M lung
MCF7 breast = test system: MCF7 breast
EKVX NSCLC = test system: EKVX NSCLC
COLO 205 colon = test system: COLO 205 colon
U251 glioblastoma = test system: U251 glioblastoma
786-0 renal = test system: 786-0 renal
SF-268 CNS = test system: SF-268 CNS
NCI-H460 NSCLC = test system: NCI-H460 NSCLC
RPMI-8226 leukemia = test system: RPMI-8226 leukemia
BT-549 breast = test system: BT-549 breast
HL-60(TB) leukemia = test system: HL-60(TB) leukemia
NCI-H522 lung = test system: NCI-H522 lung
TK-10 renal = test system: TK-10 renal
T-47D breast = test system: T-47D breast

## COC(=O)N[C@@H](C)CNc1nccc(-c2cn(C(C)C)nc2-c2cc(Cl)cc(NS(C)(=O)=O)c2F)n1
HCT-15 colon
  GI50: 9.03 µM
  TGI: > 100 µM
SK-MEL-28 melanoma
  GI50: < 0.01 µM
  TGI: < 0.01 µM
ACHN renal
  GI50: 3.54 µM
  TGI: > 100 µM
OVCAR-5 ovarian
  GI50: 33.2 µM
  TGI: > 100 µM
SW-620 colon
  GI50: 6.22 µM
  TGI: > 76.8 µM
SN12C renal
  GI50: 14.9 µM
  TGI: > 100 µM
LOX IMVI melanoma
  GI50: 0.498 µM
  TGI: > 61.2 µM
SF-295 CNS
  GI50: 97.6 µM
  TGI: > 100 µM
HCC-2998 colon
  GI50: 11.9 µM
  TGI: 39.7 µM
SR leukemia
  GI50: 6.45 µM
  TGI: 20.6 µM
NCI-H226 lung
  GI50: 37 µM
  TGI: > 100 µM
OVCAR-8 ovarian
  GI50: 38.2 µM
  TGI: > 100 µM
HT29 colon
  GI50: < 0.01 µM
  TGI: 23.6 µM
OVCAR-4 ovarian
  GI50: > 100 µM
  TGI: > 100 µM
HOP-92 NSCLC
  GI50: 7.13 µM
  TGI: > 100 µM
RXF 393 renal
  GI50: 6.32 µM
  TGI: 34.9 µM
MDA-MB-468 breast
  GI50: 11.5 µM
  TGI: > 100 µM
HS 578T breast
  GI50: 14.7 µM
  TGI: 40.8 µM
HCT-116 colon
  GI50: 1.92 µM
  TGI: > 71.9 µM
SNB-19 CNS
  GI50: > 100 µM
  TGI: > 100 µM
KM12 colon
  GI50: 36.5 µM
  TGI: > 100 µM
SK-OV-3 ovarian
  GI50: 0.806 µM
  TGI: > 100 µM
MDA-MB-231 breast
  GI50: 3.17 µM
  TGI: 40.2 µM
MALME-3M melanoma
  GI50: < 0.01 µM
  TGI: < 0.01 µM
NCI-H23 lung
  GI50: 4.15 µM
  TGI: > 100 µM
UO-31 renal
  GI50: 6.96 µM
  TGI: > 100 µM
OVCAR-3 ovarian
  GI50: 48.8 µM
  TGI: > 100 µM
M14 melanoma
  GI50: < 0.01 µM
  TGI: < 0.0175 µM
A549 NSCLC
  GI50: 16.3 µM
  TGI: > 92.6 µM
CCRF-CEM leukemia
  GI50: 42.2 µM
  TGI: > 100 µM
PC-3 prostate
  GI50: 70.9 µM
  TGI: > 100 µM
NCI/ADR-RES ovarian
  GI50: > 100 µM
  TGI: > 100 µM
A498 renal
  GI50: 1.13 µM
  TGI: > 100 µM
HOP-62 NSCLC
  GI50: 61.9 µM
  TGI: > 100 µM
MOLT-4 leukemia
  GI50: 29.6 µM
  TGI: > 100 µM
IGROV1 ovarian
  GI50: 0.929 µM
  TGI: > 100 µM
DU-145 prostate
  GI50: 6.7 µM
  TGI: > 100 µM
SF-539 CNS
  GI50: 43.3 µM
  TGI: > 100 µM
SNB-75 CNS
  GI50: 14.8 µM
  TGI: > 100 µM
CAKI-1 renal
  GI50: 0.728 µM
  TGI: > 47.9 µM
UACC-62 melanoma
  GI50: < 0.01 µM
  TGI: < 0.01 µM
NCI-H322M lung
  GI50: 6.15 µM
  TGI: > 95.8 µM
MCF7 breast
  GI50: > 100 µM
  TGI: > 100 µM
EKVX NSCLC
  GI50: 13.8 µM
  TGI: > 100 µM
COLO 205 colon
  GI50: < 0.01 µM
U251 glioblastoma
  GI50: 17.2 µM
  TGI: 65.9 µM
786-0 renal
  GI50: 7.06 µM
  TGI: > 73.3 µM
SF-268 CNS
  GI50: > 84.8 µM
  TGI: > 100 µM
NCI-H460 NSCLC
  GI50: 32.5 µM
  TGI: > 100 µM
RPMI-8226 leukemia
  GI50: > 100 µM
  TGI: > 100 µM
BT-549 breast
  GI50: 38.1 µM
  TGI: > 100 µM
HL-60(TB) leukemia
  GI50: 2.06 µM
  TGI: 6.91 µM
NCI-H522 lung
  GI50: 3.91 µM
  TGI: 97.9 µM
TK-10 renal
  GI50: 20.7 µM
  TGI: > 100 µM
T-47D breast
  GI50: > 20 µM
  TGI: > 100 µM
